Experimental data from PubChem BioAssay AID1963869 (Molecular Pharmacology Branch, DTP, NCI, 2024).

Test system: KRAS patient-derived spheroids with HUVEC/MSC, viability
Test: Anticancer human tumor 323965-272-R-J2-PDC patient-derived pancreatic carcinoma cell line growth inhibition [KRAS2]
Details: for IC50: curve of first compound; for viability, T/C: stronger effect = lower value
How it was run: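 KRAS-mutant tumor cells were grown as spheroids with HUVEC endothelial cells and human MSCs as stroma. Targeted agents were tested alone and with KRAS pathway inhibitors. Doses started at or near clinical Cmax, or 10 microM, descending half-log.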

[1] = second compound 0.1 µM, first compound 0.0316 µM
[2] = second compound 0.1 µM, first compound 0.1 µM
[3] = second compound 0.1 µM, first compound 0.316 µM
[4] = second compound 0.1 µM, first compound 1 µM
[5] = second compound 0.1 µM, first compound 3.16 µM
[6] = second compound 0.316 µM, first compound 0.0316 µM
[7] = second compound 0.316 µM, first compound 0.1 µM
[8] = second compound 0.316 µM, first compound 0.316 µM
[9] = second compound 0.316 µM, first compound 1 µM
[10] = second compound 0.316 µM, first compound 3.16 µM
[11] = second compound 1 µM, first compound 0.0316 µM
[12] = second compound 1 µM, first compound 0.1 µM
[13] = second compound 1 µM, first compound 0.316 µM
[14] = second compound 1 µM, first compound 1 µM
[15] = second compound 1 µM, first compound 3.16 µM
[16] = second compound 3.16 µM, first compound 0.0316 µM
[17] = second compound 3.16 µM, first compound 0.1 µM
[18] = second compound 3.16 µM, first compound 0.316 µM
[19] = second compound 3.16 µM, first compound 1 µM
[20] = second compound 3.16 µM, first compound 3.16 µM
[21] = second compound 10 µM, first compound 0.0316 µM
[22] = second compound 10 µM, first compound 0.1 µM
[23] = second compound 10 µM, first compound 0.316 µM
[24] = second compound 10 µM, first compound 1 µM
[25] = second compound 10 µM, first compound 3.16 µM
[26] = second compound 0.1 µM, first compound 0.01 µM
[27] = second compound 0.316 µM, first compound 0.01 µM
[28] = second compound 1 µM, first compound 0.01 µM
[29] = second compound 3.16 µM, first compound 0.01 µM
[30] = second compound 10 µM, first compound 0.01 µM
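Also: spheroids exposed to agents for 7 days.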
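For viability, T/C in this document: 100% = DMSO vehicle control viability.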

With `Cn1nccc1Nc1nccc(-c2cc3c(s2)C(C)(C)N(CCN2CCOCC2)C3=O)n1` + CC1OCC2(CCN(c3cnc(Sc4ccnc(N)c4Cl)c(N)n3)CC2)C1N the IC50 (second compound 0.1 µM) was 806 nM, the IC50 (second compound 0.316 µM) was 102 nM and the IC50 (second compound 1 µM) was < 31.6 nM. The IC50 (second compound 3.16 µM) was < 31.6 nM, the IC50 (second compound 10 µM) was < 31.6 nM and the viability, T/C [1] was 66.1%. For the same compound, the viability, T/C [2] was 67.3%, the viability, T/C [3] was 55.8% and the viability, T/C [4] was 51%. The viability, T/C [5] was 35.9%, the viability, T/C (second compound 0.1 µM, first compound 10 µM) was 36.4% and the viability, T/C [6] was 56%. It also gave a viability, T/C [7] of 50.3%, a viability, T/C [8] of 36.2% and a viability, T/C [9] of 33.1%. The viability, T/C [10] was 33.6%, the viability, T/C (second compound 0.316 µM, first compound 10 µM) was 33.5% and the viability, T/C [11] was 32.9%. For the same compound, the viability, T/C [12] was 32.4%, the viability, T/C [13] was 27.4% and the viability, T/C [14] was 22%. The viability, T/C [15] was 23.3%, the viability, T/C (second compound 1 µM, first compound 10 µM) was 22.9% and the viability, T/C [16] was 17.4%. For the same compound, the viability, T/C [17] was 16%, the viability, T/C [18] was 13.9% and the viability, T/C [19] was 14.7%. The viability, T/C [20] was 14.7%, the viability, T/C (second compound 3.16 µM, first compound 10 µM) was 18.8% and the viability, T/C [21] was 14.4%. It also gave a viability, T/C [22] of 12.8%, a viability, T/C [23] of 9.42% and a viability, T/C [24] of 8.83%. The viability, T/C [25] was 9.11% and the viability, T/C (second compound 10 µM, first compound 10 µM) was 12.2%.
`CC(=O)Nc1cccc(-n2c(=O)n(C3CC3)c(=O)c3c(Nc4ccc(I)cc4F)n(C)c(=O)c(C)c32)c1` + CNCc1ccccc1-c1csc(C(C)Nc2nc(C)nc3cc(OC)c(OC)cc23)c1 was tested, and the IC50 (second compound 0.1 µM) was 3.71 nM, the IC50 (second compound 0.316 µM) was 2.91 nM and the IC50 (second compound 1 µM) was 4.97 nM. For the same compound, the IC50 (second compound 3.16 µM) was 8.68 nM, the IC50 (second compound 10 µM) was < 0.1 nM and the viability, T/C (second compound 0.1 µM, first compound 0.0001 µM) was 88%. For the same compound, the viability, T/C (second compound 0.1 µM, first compound 0.000316 µM) was 83.9%, the viability, T/C (second compound 0.1 µM, first compound 0.001 µM) was 60.7% and the viability, T/C (second compound 0.1 µM, first compound 0.00316 µM) was 52.4%. For the same compound, the viability, T/C [26] was 41.2%, the viability, T/C [1] was 27.7% and the viability, T/C (second compound 0.316 µM, first compound 0.0001 µM) was 85.3%. The viability, T/C (second compound 0.316 µM, first compound 0.000316 µM) was 68.7%, the viability, T/C (second compound 0.316 µM, first compound 0.001 µM) was 62.7% and the viability, T/C (second compound 0.316 µM, first compound 0.00316 µM) was 49%. It also gave a viability, T/C [27] of 38.7%, a viability, T/C [6] of 24.8% and a viability, T/C (second compound 1 µM, first compound 0.0001 µM) of 89.8%. For the same compound, the viability, T/C (second compound 1 µM, first compound 0.000316 µM) was 81.6%, the viability, T/C (second compound 1 µM, first compound 0.001 µM) was 67.7% and the viability, T/C (second compound 1 µM, first compound 0.00316 µM) was 55.5%. For the same compound, the viability, T/C [28] was 44%, the viability, T/C [11] was 21.3% and the viability, T/C (second compound 3.16 µM, first compound 0.0001 µM) was 95.6%. The viability, T/C (second compound 3.16 µM, first compound 0.000316 µM) was 88.4%, the viability, T/C (second compound 3.16 µM, first compound 0.001 µM) was 77.6% and the viability, T/C (second compound 3.16 µM, first compound 0.00316 µM) was 64.3%. The viability, T/C [29] was 48.4%, the viability, T/C [16] was 28.8% and the viability, T/C (second compound 10 µM, first compound 0.0001 µM) was 7.63%. For the same compound, the viability, T/C (second compound 10 µM, first compound 0.000316 µM) was 0.79%, the viability, T/C (second compound 10 µM, first compound 0.001 µM) was 6.13% and the viability, T/C (second compound 10 µM, first compound 0.00316 µM) was 0.2%. It also gave a viability, T/C [30] of 0.19% and a viability, T/C [21] of 1.14%.
In the case of `CC(=O)OC12COC1CC(O)C1(C)C(=O)C(O)C3=C(C)C(OC(=O)C(O)C(NC(=O)OC(C)(C)C)c4ccccc4)CC(O)(C(OC(=O)c4ccccc4)C21)C3(C)C` (stereo not given) + CNCc1ccccc1-c1csc(C(C)Nc2nc(C)nc3cc(OC)c(OC)cc23)c1, the IC50 (second compound 0.1 µM) is reported as < 10 nM, the IC50 (second compound 0.316 µM) is reported as < 10 nM and the IC50 (second compound 1 µM) is reported as < 10 nM. For the same compound, the IC50 (second compound 3.16 µM) was < 10 nM, the IC50 (second compound 10 µM) was < 10 nM and the viability, T/C [26] was 29%. For the same compound, the viability, T/C [1] was 25.5%, the viability, T/C [2] was 24.1% and the viability, T/C [3] was 25.7%. The viability, T/C [4] was 26.5%, the viability, T/C [5] was 28.6% and the viability, T/C [27] was 23.3%. The viability, T/C [6] was 24.3%, the viability, T/C [7] was 21.9% and the viability, T/C [8] was 21.8%. For the same compound, the viability, T/C [9] was 23%, the viability, T/C [10] was 25.7% and the viability, T/C [28] was 27.5%. It also gave a viability, T/C [11] of 25.7%, a viability, T/C [12] of 28.4% and a viability, T/C [13] of 28.2%. The viability, T/C [14] was 32.7%, the viability, T/C [15] was 35.3% and the viability, T/C [29] was 0.95%. The viability, T/C [16] was 26.9%, the viability, T/C [17] was 4.54% and the viability, T/C [18] was 0.8%. The viability, T/C [19] was 7.93%, the viability, T/C [20] was 30.4% and the viability, T/C [30] was 0.72%. It also gave a viability, T/C [21] of 0.14%, a viability, T/C [22] of 0.36% and a viability, T/C [23] of 0.45%. For the same compound, the viability, T/C [24] was 0.41% and the viability, T/C [25] was 0.21%.
